Read-outs that look alike come from different tables or passages of the source.
How the values were obtained:
[1] = In vivo dog bioavailability and pharmacokinetic study, reference vs SDD; conditions: beagle, plasma, po, 30 mg/kg, dogs, suspension in 0.5% HPMC in water, mean ± SD
Method: Dogs are fasted overnight prior to dosing (fasted) or fed canned food 45 min prior to dosing (fed). Samples for pharmacokinetic (PK) analysis are collected at 30 min, 1, 2, 4, 8, 24, and 48 hours post-dose. Blood samples are processed to plasma and stored frozen at −70° C. until analysis of the compound of Formula I concentrations. The concentration of the compound of Formula I in the plasma is determined by reverse phase HPLC with mass spectrometry detection. The compound of Formula I area under the curve is calculated by the trapezoidal method over the time course of the study. ANOVA with Dunett correction for multiple comparisons is used to determine statistical significant of differences from the reference formulation. The values of AUC and Cmax are reported as averages±standard deviation for each group of dogs in Table 24.

[2] = Dog pharmacokinetics, crystalline compound in suspension (Example 15 Part A); type: in vivo, beagle dogs; conditions: for bioavailability / AUC(0-t) / Cmax: both sexes, beagle, dog, plasma, 30 mg/kg; for bioavailability: oral, AUC0-t oral vs AUC0-inf of 2-mg/kg IV dose, read-out: F (bioavailability); for AUC(0-t) / Cmax: po, suspension in 0.5% HPMC
Method: Crystalline compound of Formula I is prepared as a suspension in 0.5% hydroxypropyl methylcellulose (IPMC) at 6 mg/mL for administration of 30 mg/kg; no correction factor is used for dose formulation. Three male and five female beagle dogs are administered a single PO gavage dose of 30 mg/kg compound of Formula I formulated as a suspension in 0.5% HPMC. All animals are administered the suspension of the crystalline compound of Formula I in fed and fasted states, following a 7-day washout period between dosing periods/feeding conditions. For both feeding conditions, access to food is removed at least 12 hours prior to dose administration. In Crossover #1, 6 dogs are fed a mix of canned and dry food approximately 45 minutes prior to dose administration (Group 1), and 2 dogs are administered the compound of Formula I in a fasted state and fed 4 hours after dosing (Group 2). In Crossover #2, the 2 dogs that are administered the compound of Formula I in the fasted state in Crossover #1 are fed a mix of canned and dry food approximately 45 minutes prior to dose administration (Group 3), and 5 of the dogs that are administered the compound of Formula I in the fed state in Crossover #1 are administered the compound of Formula I in a fasted state and fed 4 hours after dosing (Group 4) (Table 26). The same 3 males and 3 females are assigned to Groups 1 and 4 (with the exception of one female, which is assigned to Group 1 but is not included in Group 4), and the same 2 females are assigned to Groups 2 and 3.
Blood samples are collected via the jugular vein following PO doses at 0 (pre-dose), 0.5, 1, 2, 4, 8 24 and 48 hours into EDTAblood collection tubes. Samples are centrifuged at 3500 rpm for 10 minutes at 4-8° C. and the plasma fraction is stored frozen at −70° C. prior to bioanalytical analysis. Concentrations of the compound of Formula I in dog plasma are determined by LC-MS/MS following protein precipitation with acetonitrile. Non-compartmental pharmacokinetic parameters of the compound of Formula I are calculated by conventional methods using individual plasma concentration profiles over time and Microsoft Excel.

[3] = beagle dogs, single PO 30 mg/kg
[4] = beagle dogs, fasted, single PO 30 mg/kg
[5] = beagle dogs, fed, single PO 30 mg/kg

COc1ccc(F)cc1C(=O)NCc1ccc(-c2nn([C@@H](C)C(F)(F)F)c(N)c2C(N)=O)cc1 [Reference, (S)-5-amino-3-(4-((5-fluoro-2-methoxybenzamido)methyl)phenyl)-1-(1,1,1-trifluoropropan-2-yl)-1H-pyrazole-4-carboxamide]
AUC ([1]; fasted): 11300 ng·h/mL | Cmax ([1]; fasted): 597 ng/mL | AUC ([1]; fed): 47800 ng·h/mL | Cmax ([1]; fed): 2370 ng/mL

COc1ccc(F)cc1C(=O)NCc1ccc(-c2nn([C@@H](C)C(F)(F)F)c(N)c2C(N)=O)cc1 [Crystalline compound of Formula I, (S)-5-amino-3-(4-((5-fluoro-2-methoxybenzamido)methyl)phenyl)-1-(1,1,1-trifluoropropan-2-yl)-1H-pyrazole-4-carboxamide]
AUC0-t fold change (fed/fasted ratio) [2, 3]: 7.5 ± 3.3 | Cmax fold change (fed/fasted ratio) [2, 3]: 4.8 ± 2.1 | bioavailability ([2]; fasted): 5.09% | bioavailability ([2]; fed): 29.7% | AUC(0-t) [2, 4]: 8180 ± 3680 ng·h/mL | Cmax [2, 4]: 597 ± 197 ng/mL | AUC(0-t) [2, 5]: 47800 ± 21300 ng·h/mL | Cmax [2, 5]: 2370 ± 679 ng/mL
